The values below come from patent publication EP4806898A1, “HETEROARYL DERIVATIVE COMPOUND AND USE THEREOF” (Voronoi Inc., priority 2023, dated 2025).

SMILES strings stand for the structures.

By ΔTm is commonly meant the shift of the melting midpoint relative to a reference. For orientation: GI50 means the concentration that inhibits growth by half.

One assay deals with T1, recombinant USP1 protein (Homo sapiens, UniProt O94782, DEL125-138/DEL229-408/DEL608-737).
T1 sequence (O94782 with tags, fused parts or gaps DEL125-138/DEL229-408/DEL608-737): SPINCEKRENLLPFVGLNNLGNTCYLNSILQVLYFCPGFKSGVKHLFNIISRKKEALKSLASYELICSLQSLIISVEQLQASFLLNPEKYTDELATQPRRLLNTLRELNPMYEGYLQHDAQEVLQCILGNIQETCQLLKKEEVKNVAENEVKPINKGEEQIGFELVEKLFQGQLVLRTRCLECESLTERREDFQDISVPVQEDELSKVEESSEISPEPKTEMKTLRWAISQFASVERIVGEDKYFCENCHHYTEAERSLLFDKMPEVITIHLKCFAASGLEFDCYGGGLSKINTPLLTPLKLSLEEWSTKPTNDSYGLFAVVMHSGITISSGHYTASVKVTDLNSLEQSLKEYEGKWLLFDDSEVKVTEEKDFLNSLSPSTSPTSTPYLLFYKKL
As to the kind of experiment: Binding affinity to recombinant USP1 protein by differential scanning fluorimetry. To be noted: compound 100 µM; 0.03 mg/mL USP1 (Δ1-66, Δ125-138, Δ229-408, Δ608-737); Tm with compound minus Tm with DMSO; read-out: ΔTm (°C). In outline: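 USP1 (Δ1-66, Δ125-138, Δ229-408, Δ608-737) at 0.03 mg/mL with dye in 50 mM Tris-HCl pH 8.0, 150 mM NaCl, 2% glycerol, 1 mM DTT; compounds at 100 µM final. Tm read on real-time PCR instrument; ΔTm = Tm with compound minus Tm with DMSO.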
(In general: In DSF a fluorescence change marks the thermal transition of the protein.)

In the next assay the test system is UWB1.289 cells. Kind of assay: Cell proliferation inhibitory activity in BRCA1/2-mutant or HRD-positive cells (Cell Titer-Glo). The assay is classed as cell-based. Particulars: UWB1289; UWB1.289 cells, 144 hours after compound treatment, Cell Titer-Glo, 1.5 nM to 10 µM; read-out: GI50 UWB1.289 BRCA1 mut. In outline:
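UWB1.289 cells (1,000/well) in 50% MEBM/50% RPMI1640 exposed to […], final 1.5 nM to 10 µM, for 144 h at 37 °C. Viable cells measured by CellTiter-Glo luminescence; GI50 calculated.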
For orientation: Cellular ATP, detected with luciferase, serves as a proxy for viable cell number.

Take `COc1ncnc(C2CC2)c1-c1ncc2cc(C(=O)N(C)CC(F)(F)F)n(Cc3ccc(-c4nc(C(F)(F)F)cn4C(C)C)cc3)c2n1` [Example 70, 2-(4-cyclopropyl-6-methoxypyrimidin-5-yl)-7-(4-(1-isopropyl-4-(trifluoromethyl)-1H-imidazol-2-yl)benzyl)-N-methyl-N-(2,2,2-trifluoroethyl)-7H-pyrrolo[2,3-d]pyrimidine-6-carboxamide]: the ΔTm at 100 µM at recombinant USP1 protein was above 5 °C. In the assay on UWB1.289 cells, the GI50 is 0.1 to 0.5 µM.
For `COCC1CN(C(=O)c2cc3cnc(-c4c(OC)ncnc4C4CC4)nc3n2Cc2ccc(-c3nc(C(F)(F)F)cn3C(C)C)cc2)C1` [Example 71, (2-(4-cyclopropyl-6-methoxypyrimid in-5-yl)-7-(4-(1-isopropyl-4-(trifluoromethyl)-1H-imidazol-2-yl)benzyl)-7H-pyrrolo[2,3-d]pyrimidin-6-yl) (3-(methoxymethyl)azetidin-1-yl)methanone], in that order: above 5 °C and below 0.1 µM.
For `COc1ncnc(C2CC2)c1-c1ncc2cc(C(=O)N3CCC(F)(F)C3)n(Cc3ccc(-c4nc(C(F)(F)F)cn4C(C)C)cc3)c2n1` [Example 73, (2-(4-cyclopropyl-6-methoxypyrimid in-5-yl)-7-(4-(1-isopropyl-4-(trifluoromethyl)-1H-imidazol-2-yl)benzyl)-7H-pyrrolo[2,3-d]pyrimidin-6-yl)(3,3-difluoropyrrolidin-1-yl)methanone], in that order: above 5 °C and 0.1 to 0.5 µM.
For `COc1ncnc(C2CC2)c1-c1ncc2cc(C(=O)N3CC(CS(C)(=O)=O)C3)n(Cc3ccc(-c4nc(C(F)(F)F)cn4C(C)C)cc3)c2n1` [Example 75, (2-(4-cyclopropyl-6-methoxypyrimid in-5-yl)-7-(4-(1-isopropyl-4-(trifluoromethyl)-1H-imidazol-2-yl)benzyl)-7H-pyrrolo[2,3-d]pyrimidin-6-yl) (3-((methylsulfonyl)methyl)azetidin-1-yl)methanone], in that order: above 5 °C and 0.1 to 0.5 µM.
For `COc1ncnc(C2CC2)c1-c1ncc2cc(C(=O)NC3CCS(=O)(=O)C3)n(Cc3ccc(-c4nc(C(F)(F)F)cn4C(C)C)cc3)c2n1` (stereo not shown) [Example 78, 2-(4-cyclopropyl-6-methoxypyrimidin-5-yl)-N-(1,1-dioxidotetrahydrothiophen-3-yl)-7-(4-(1-isopropyl-4-(trifluoromethyl)-1H-imidazol-2-yl)benzyl)-7H-pyrrolo[2,3-d]pyrimidine-6-carboxamide], at recombinant USP1 protein, the ΔTm at 100 µM is above 5 °C. Besides, the concentration for 50% growth inhibition (GI50) in the assay with UWB1.289 cells was 0.1 to 0.5 µM.
On the same counts, the results for `COc1ncnc(C2CC2)c1-c1ncc2cc(C(=O)NC3(C)CC3)n(Cc3ccc(-c4nc(C(F)(F)F)cn4C(C)C)cc3)c2n1` [Example 79, 2-(4-cyclopropyl-6-methoxypyrimidin-5-yl)-7-(4-(1-isopropyl-4-(trifluoromethyl)-1H-imidazol-2-yl)benzyl)-N-(1-methylcyclopropyl)-7H-pyrrolo[2,3-d]pyrimidine-6-carboxamide] are above 5 °C and 0.1 to 0.5 µM.
On the same counts, the results for `COc1ncnc(C2CC2)c1-c1ncc2cc(C(=O)NCC3CCC(F)(F)C3)n(Cc3ccc(-c4nc(C(F)(F)F)cn4C(C)C)cc3)c2n1` (stereo not shown) [Example 80, 2-(4-cyclopropyl-6-methoxypyrimidin-5-yl)-N-((3,3-difluorocyclopentyl)methyl)-7-(4-(1-isopropyl-4-(trifluoromethyl)-1H-imidazol-2-yl)benzyl)-7H-pyrrolo[2,3-d]pyrimidine-6-carboxamide] are above 5 °C and 0.1 to 0.5 µM.
On the same counts, the results for `CC[C@H](C)NC(=O)c1cc2cnc(-c3c(OC)ncnc3C3CC3)nc2n1Cc1ccc(-c2nc(C(F)(F)F)cn2C(C)C)cc1` [Example 82, (S)-N-(sec-butyl)-2-(4-cyclopropyl-6-methoxypyrimidin-5-yl)-7-(4-(1-isopropyl-4-(trifluoromethyl)-1H-imidazol-2-yl)benzyl)-7H-pyrrolo[2,3-d]pyrimidine-6-carboxamide] are above 5 °C and below 0.1 µM.
For the molecule `COc1ncnc(C2CC2)c1-c1ncc2cc(C(=O)N[C@H](C)CCO)n(Cc3ccc(-c4nc(C(F)(F)F)cn4C(C)C)cc3)c2n1` [Example 83, (R)-2-(4-cyclopropyl-6-methoxypyrimidin-5-yl)-N-(4-hydroxybutan-2-yl)-7-(4-(1-isopropyl-4-(trifluoromethyl)-1H-imidazol-2-yl)benzyl)-7H-pyrrolo[2,3-d]pyrimidine-6-carboxamide], at recombinant USP1 protein, the ΔTm at 100 µM is above 5 °C. In the assay with UWB1.289 cells, the GI50 was below 0.1 µM.
For `COc1ncnc(C2CC2)c1-c1ncc2cc(C(=O)N[C@H](C)C(F)(F)F)n(Cc3ccc(-c4nc(C(F)(F)F)cn4C(C)C)cc3)c2n1` [Example 85, (R)-2-(4-cyclopropyl-6-methoxypyrimidin-5-yl)-7-(4-(1-isopropyl-4-(trifluoromethyl)-1H-imidazol-2-yl)benzyl)-N-(1,1,1-trifluoropropan-2-yl)-7H-pyrrolo[2,3-d]pyrimidine-6-carboxamide], in that order: above 5 °C and 0.1 to 0.5 µM.
For `COc1ncnc(C2CC2)c1-c1ncc2cc(C(=O)N[C@@H](C)C(F)(F)F)n(Cc3ccc(-c4nc(C(F)(F)F)cn4C(C)C)cc3)c2n1` [Example 86, (S)-2-(4-cyclopropyl-6-methoxypyrimidin-5-yl)-7-(4-(1-isopropyl-4-(trifluoromethyl)-1H-imidazol-2-yl)benzyl)-N-(1,1,1-trifluoropropan-2-yl)-7H-pyrrolo[2,3-d]pyrimidine-6-carboxamide], in that order: above 5 °C and below 0.1 µM.
For `COc1ncnc(C2CC2)c1-c1ncc2cc(C(=O)NCC3CCN(C)CC3)n(Cc3ccc(-c4nc(C(F)(F)F)cn4C(C)C)cc3)c2n1` [Example 87, 2-(4-cyclopropyl-6-methoxypyrimidin-5-yl)-7-(4-(1-isopropyl-4-(trifluoromethyl)-1H-imidazol-2-yl)benzyl)-N-((1-methylpiperidin-4-yl)methyl)-7H-pyrrolo[2,3-d]pyrimidine-6-carboxamide], in that order: above 5 °C and 0.1 to 0.5 µM.
Take `COc1ncnc(C2CC2)c1-c1ncc2cc(C(=O)NC34CC(F)(C3)C4)n(Cc3ccc(-c4nc(C(F)(F)F)cn4C(C)C)cc3)c2n1` [Example 89, 2-(4-cyclopropyl-6-methoxypyrimidin-5-yl)-N-(3-fluorobicyclo[1.1.1]pentan-1-yl)-7-(4-(1-isopropyl-4-(trifluoromethyl)-1H-imidazol-2-yl)benzyl)-7H-pyrrolo[2,3-d]pyrimidine-6-carboxamide]: the ΔTm at 100 µM at recombinant USP1 protein was above 5 °C. In the assay on UWB1.289 cells, the GI50 fell in the range of 0.1 to 0.5 µM.
For `COc1ncnc(C2CC2)c1-c1ncc2cc(C(=O)NCCC3CC(F)(F)C3)n(Cc3ccc(-c4nc(C(F)(F)F)cn4C(C)C)cc3)c2n1` [Example 90, 2-(4-cyclopropyl-6-methoxypyrimidin-5-yl)-N-(2-(3,3-difluorocyclobutyl)ethyl)-7-(4-(1-isopropyl-4-(trifluoromethyl)-1H-imidazol-2-yl)benzyl)-7H-pyrrolo[2,3-d]pyrimidine-6-carboxamide], in that order: above 5 °C and below 0.1 µM.
`COc1ncnc(C2CC2)c1-c1ncc2cc(C(=O)N3CCC4(CC3)CNCCO4)n(Cc3ccc(-c4nc(C(F)(F)F)cn4C(C)C)cc3)c2n1` [Example 94, (2-(4-cyclopropyl-6-methoxypyrimid in-5-yl)-7-(4-(1-isopropyl-4-(trifluoromethyl)-1H-imidazol-2-yl)benzyl)-7H-pyrrolo[2,3-d]pyrimidin-6-yl)(1-oxa-4,9-diazaspiro[5.5]undecan-9-yl)methanone]: the ΔTm at 100 µM on recombinant USP1 protein is above 5 °C. Also, the GI50 in the assay with UWB1.289 cells was 0.1 to 0.5 µM.
For `CNC(=O)c1cc2cnc(-c3c(OC(F)F)ncnc3C3CC3)nc2n1Cc1ccc(-c2nc(C(F)(F)F)cn2C(C)C)cc1` [Example 95, 2-(4-cyclopropyl-6-(difluoromethoxy)pyrimidin-5-yl)-7-(4-(1-isopropyl-4-(trifluoromethyl)-1H-imidazol-2-yl)benzyl)-N-methyl-7H-pyrrolo[2,3-d]pyrimidine-6-carboxamide], in that order: above 5 °C and 0.1 to 0.5 µM.
For the molecule `CN[C@H]1CCN(C(=O)c2cc3cnc(-c4c(OC)ncnc4C4CC4)nc3n2Cc2ccc(-c3nc(C(F)(F)F)cn3C(C)C)cc2)C1` [Example 97, (S)-(2-(4-cyclopropyl-6-methoxypyrimidin-5-yl)-7-(4-(1-isopropyl-4-(trifluoromethyl)-1H-imidazol-2-yl)benzyl)-7H-pyrrolo[2,3-d]pyrimidin-6-yl) (3-(methylamino)pyrrolidin-1-yl)methanone], on recombinant USP1 protein, the shift in melting temperature (ΔTm) at 100 µM is above 5 °C. In addition, the GI50 in the assay on UWB1.289 cells lay within 0.1 to 0.5 µM.
